Data: publication PMC7070898 (Clinical and Translational Science, 2019)

Legend:
[1] = test system: collagen‐induced arthritis; details: collagen‐induced arthritis mouse model ref 8; cited from earlier work
[2] = test system: experimental autoimmune encephalomyelitis; details: B cell‐dependent and T cell‐dependent EAE mouse models ref 9, 10; cited from earlier work
[3] = test system: B cell and basophil activation; details: human cellular assays ref 8; cited from earlier work
[4] = test system: interferon‐accelerated systemic lupus erythematosus; details: mouse model of interferon‐accelerated systemic lupus erythematosus ref 8; cited from earlier work
[5] = Plasma pharmacokinetics, noncompartmental, SAD/MAD trial; type: in vivo, human; details: for Vd/F / half-life: human, in vivo; for Vd/F: Vz/F, N 9, geometric mean (CV% GM)

Q: Which “rheumatoid arthritis‐like symptoms” value [1] does the source give for `C=CC(=O)N1CCC(CNc2ncnc(N)c2-c2ccc(Oc3ccccc3)cc2)CC1` [evobrutinib] here?
A: rheumatoid arthritis‐like symptoms were inhibited

Q: What about the “central nervous system inflammation and disease severity” value [2] of the same compound?
A: limited central nervous system inflammation and disease severity

Q: And the “inhibition of B cell and basophil activation” value [3]?
A: potently inhibits B cell and basophil activation

Q: And the disease activity [4]?
A: robust reduction in disease activity

Q: What about the Vd/F ([5]; 25 mg, multiple-dose study day 1, 25 mg) of the same compound?
A: 498 L

Q: And the Vd/F ([5]; 75 mg, multiple-dose study day 1, 75 mg)?
A: 620 L

Q: And the Vd/F ([5]; 200 mg, multiple-dose study day 1, 200 mg)?
A: 647 L

Q: And the half-life ([5]; 500 mg, geometric mean terminal half‐life (t1/2), single doses 350 and 500 mg)?
A: 6.6 to 6.8 h

Q: And the half-life ([5]; geometric mean terminal half‐life (t1/2), single doses 25–200 mg)?
A: 1.8 to 2.6 h

Q: And the half-life ([5]; half‐life (relevant t1/2), overall summary, all doses)?
A: ~2 h

Q: And the “dose proportionality of AUC0–24h and Cmax” value ([5]; multiple dosing of 25–200 mg, power model)?
A: Dose proportionality of AUC0–24h and Cmax was demonstrated

Q: And the “time dependency of PK” value ([5]; part 2, day 14 vs day 1)?
A: no time dependency

Q: And the “Apparent clearance across doses” value ([5]; single dosing 25–500 mg, part 1)?
A: 2,553–3,995 mL/minute
